In ChEMBL document CHEMBL5550205, “Discovery of a NCOA4 Degrader for Labile Iron-Dependent Ferroptosis Inhibition” (J Med Chem, 2024):
The source made the active and inactive calls. The rule behind the calls is not given here.

What was measured:
Mus musculus [1] = test: Inhibition of CCl4-induced ferroptosis in acute liver injury C57BL/6 mouse model assessed as reduction in IL-1beta level in serum at 10 to 30 mg/kg, ip pretreated with compound for 3 hrs followed by CCl4 induction and measured after 12 to 24 hrs by ELISA analysis; type: functional, organism-based; settings: dose 10-30 mg/kg, time 15-27 hrs
AML12 [2] = test: Protection against RSL3-induced ferroptosis in mouse AML12 cells assessed as increase in cell viability at 200 nM measured for 48 hrs by cell counting-lite 2.0 analysis; type: functional, cell-based
AML12 [3] = test: Downregulation of lipid hydroperoxide level in mouse AML12 cells at 200 nM measured for 36 hrs; type: functional, cell-based
AML12 [4] = test: Protection against CCl4-induced ferroptosis in mouse AML12 cells assessed as reduction in ptgs2 mRNA level at 200 to 1000 nM measured for 36 hrs by qRT-PCR analysis; type: functional, cell-based; settings: dose 200-1000 nM
Mus musculus [5] = test: Inhibition of CCl4-induced ferroptosis in acute liver injury C57BL/6 mouse model assessed as reduction in ptgs2 mRNA level in liver at 10 to 30 mg/kg, ip pretreated with compound for 3 hrs followed by CCl4 induction and measured after 12 to 24 hrs; type: functional, organism-based; settings: dose 10-30 mg/kg, time 15-27 hrs
AML12 [6] = test: Effect on FTL mRNA expression in mouse AML12 cells at 0.12 to 10 uM measured for 36 hrs by RT-qPCR analysis; type: functional, cell-based; settings: dose 0.12-10 µM
AML12 [7] = test: Protection against FINO2-induced ferroptosis in mouse AML12 cells assessed as increase in cell viability at 200 nM measured for 48 hrs by cell counting-lite 2.0 analysis; type: functional, cell-based
[8] = target: T1, von Hippel-Lindau disease tumor suppressor/Nuclear receptor coactivator 4 (Homo sapiens, UniProt P40337+Q13772); test: PROTAC activity at NCOA4/VHL in human HeLa cells assessed as downregulation of NCOA4 level measured after 3 hrs by Western blot analysis; type: cell-based
T1 sequence (P40337 whole entry, looked up): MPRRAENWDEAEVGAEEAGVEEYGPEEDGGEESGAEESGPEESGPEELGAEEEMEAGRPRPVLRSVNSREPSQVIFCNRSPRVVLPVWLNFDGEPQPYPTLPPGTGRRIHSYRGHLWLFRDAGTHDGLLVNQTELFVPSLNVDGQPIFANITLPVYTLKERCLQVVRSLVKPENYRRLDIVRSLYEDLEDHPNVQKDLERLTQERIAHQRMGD
T1 sequence (Q13772 whole entry, looked up): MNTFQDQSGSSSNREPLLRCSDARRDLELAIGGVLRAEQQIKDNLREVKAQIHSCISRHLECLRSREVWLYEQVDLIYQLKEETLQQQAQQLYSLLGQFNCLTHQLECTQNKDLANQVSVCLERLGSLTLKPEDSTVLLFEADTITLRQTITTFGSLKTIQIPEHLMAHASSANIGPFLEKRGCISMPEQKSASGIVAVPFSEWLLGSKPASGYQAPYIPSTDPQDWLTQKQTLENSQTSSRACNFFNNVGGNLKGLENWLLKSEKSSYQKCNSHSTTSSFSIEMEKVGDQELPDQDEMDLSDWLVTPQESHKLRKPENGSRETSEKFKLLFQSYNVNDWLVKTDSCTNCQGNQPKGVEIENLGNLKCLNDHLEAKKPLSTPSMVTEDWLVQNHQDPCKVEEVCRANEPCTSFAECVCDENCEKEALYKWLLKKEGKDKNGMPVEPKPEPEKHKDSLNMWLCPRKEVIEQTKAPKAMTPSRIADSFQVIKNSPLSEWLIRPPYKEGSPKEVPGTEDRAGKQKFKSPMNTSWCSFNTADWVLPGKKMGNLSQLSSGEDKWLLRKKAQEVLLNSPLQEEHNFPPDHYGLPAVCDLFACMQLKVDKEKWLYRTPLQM

Mus musculus [9] = test: Inhibition of CCl4-induced ferroptosis in acute liver injury C57BL/6 mouse model assessed as reduction in TNF-alpha level in serum at 10 to 30 mg/kg, ip pretreated with compound for 3 hrs followed by CCl4 induction and measured after 12 to 24 hrs by ELISA analysis; type: functional, organism-based; settings: dose 10-30 mg/kg, time 15-27 hrs
Mus musculus [10] = test: Inhibition of CCl4-induced ferroptosis in acute liver injury C57BL/6 mouse model assessed as decrease in IL-1beta expression in liver at 10 to 30 mg/kg, ip pretreated with compound for 3 hrs followed by CCl4 induction and measured after 12 to 24 hrs by q-PCR analysis; type: functional, organism-based; settings: dose 10-30 mg/kg, time 15-27 hrs
Mus musculus [11] = test: Inhibition of CCl4-induced ferroptosis in acute liver injury C57BL/6 mouse model assessed as decrease in TNF-alpha expression in liver at 10 to 30 mg/kg, ip pretreated with compound for 3 hrs followed by CCl4 induction and measured after 12 to 24 hrs by q-PCR analysis; type: functional, organism-based; settings: dose 10-30 mg/kg, time 15-27 hrs
AML12 [12] = test: Protection against RSL3-induced ferroptosis in mouse AML12 cells assessed as reduction in lipid peroxidation level at 200 nM measured for 48 hrs; type: functional, cell-based
Mus musculus [13] = test: Inhibition of CCl4-induced ferroptosis in acute liver injury C57BL/6 mouse model assessed as inhibition of ALT level at 10 to 30 mg/kg, ip pretreated with compound for 3 hrs followed by CCl4 induction and measured after 12 to 24 hrs; type: functional, organism-based; settings: dose 10-30 mg/kg, time 15-27 hrs
AML12 [14] = test: Protection against CCl4-induced ferroptosis in mouse AML12 cells assessed as […] at 200 nM measured for 48 hrs; type: functional, cell-based
Mus musculus [15] = test: Inhibition of CCl4-induced ferroptosis in acute liver injury C57BL/6 mouse model assessed as reduction in MDA content in liver at 10 to 30 mg/kg, ip pretreated with compound for 3 hrs followed by CCl4 induction and measured after 12 to 24 hrs; type: functional, organism-based; settings: dose 10-30 mg/kg, time 15-27 hrs
AML12 [16] = test: Downregulation of Free Fe2+ level in mouse AML12 cells by FerroOrange dye based laser scanning confocal microscopic analysis; type: functional, cell-based
Mus musculus [17] = test: Inhibition of CCl4-induced ferroptosis in acute liver injury C57BL/6 mouse model assessed as downregulation of NCOA4 level at 10 to 30 mg/kg, ip pretreated with compound for 3 hrs followed by CCl4 induction and measured after 12 to 24 hrs by Western blot analysis; type: functional, organism-based; settings: dose 10-30 mg/kg, time 15-27 hrs
AML12 [18] = test: Protection against iFSP1-induced ferroptosis in mouse AML12 cells assessed as attenuation of Fe2+ level by fluorescence imaging analysis; type: functional, cell-based
Mus musculus [19] = test: Inhibition of CCl4-induced ferroptosis in acute liver injury C57BL/6 mouse model assessed as reduction in inflammation at 10 to 30 mg/kg, ip pretreated with compound for 3 hrs followed by CCl4 induction and measured after 12 to 24 hrs by H and E staining based analysis; type: functional, organism-based; settings: dose 10-30 mg/kg, time 15-27 hrs
AML12 [20] = test: Protection against Erastin-induced ferroptosis in mouse AML12 cells assessed as attenuation of Fe2+ level by fluorescence imaging analysis; type: functional, cell-based
Mus musculus [21] = test: Inhibition of CCl4-induced ferroptosis in acute liver injury C57BL/6 mouse model assessed as downregulation of FTH1 level at 10 to 30 mg/kg, ip pretreated with compound for 3 hrs followed by CCl4 induction and measured after 12 to 24 hrs by Western blot analysis; type: functional, organism-based; settings: dose 10-30 mg/kg, time 15-27 hrs
[22] = target: T1, von Hippel-Lindau disease tumor suppressor/Nuclear receptor coactivator 4; test: PROTAC activity at NCOA4/VHL in human HeLa cells assessed as induction of NCOA4 degradation at 50 nM measured 36 to 48 hrs by Western blot analysis; type: cell-based; settings: time 36-48 hrs
[23] = target: von Hippel-Lindau disease tumor suppressor/Nuclear receptor coactivator 4 (Mus musculus, UniProt P40338+Q5U4H9); test: PROTAC activity at NCOA4/VHL in mouse AML12 cells assessed as reduction in intracellular NCOA4 level incubated for 24 hrs by Western blot analysis; type: cell-based
Sequence of von Hippel-Lindau disease tumor suppressor/Nuclear receptor coactivator 4 (Mus musculus, UniProt P40338+Q5U4H9) (P40338 whole entry): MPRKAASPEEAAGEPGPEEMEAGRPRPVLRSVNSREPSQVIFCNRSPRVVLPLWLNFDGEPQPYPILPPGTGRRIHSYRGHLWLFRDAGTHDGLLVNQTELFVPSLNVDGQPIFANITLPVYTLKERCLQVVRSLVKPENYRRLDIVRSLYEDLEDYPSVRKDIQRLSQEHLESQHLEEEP
Sequence of von Hippel-Lindau disease tumor suppressor/Nuclear receptor coactivator 4 (Mus musculus, UniProt P40338+Q5U4H9) (Q5U4H9 whole entry): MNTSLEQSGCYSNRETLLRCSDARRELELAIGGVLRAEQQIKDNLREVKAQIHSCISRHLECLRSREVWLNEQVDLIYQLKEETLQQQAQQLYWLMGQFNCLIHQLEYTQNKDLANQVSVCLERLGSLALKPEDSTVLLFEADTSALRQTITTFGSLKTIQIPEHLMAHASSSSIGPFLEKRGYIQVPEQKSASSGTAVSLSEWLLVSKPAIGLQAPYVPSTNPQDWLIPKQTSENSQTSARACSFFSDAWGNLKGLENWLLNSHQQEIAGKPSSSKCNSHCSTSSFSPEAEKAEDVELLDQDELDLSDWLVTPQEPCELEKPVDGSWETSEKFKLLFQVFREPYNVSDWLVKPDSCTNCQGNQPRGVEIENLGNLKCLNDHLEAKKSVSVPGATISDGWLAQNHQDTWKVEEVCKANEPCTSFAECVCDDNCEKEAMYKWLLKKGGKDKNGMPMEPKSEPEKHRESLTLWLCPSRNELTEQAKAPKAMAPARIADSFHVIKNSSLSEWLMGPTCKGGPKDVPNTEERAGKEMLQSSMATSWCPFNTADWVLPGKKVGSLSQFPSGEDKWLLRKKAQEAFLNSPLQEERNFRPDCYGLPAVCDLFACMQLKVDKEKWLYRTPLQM

AML12 [24] = test: Protection against CCl4-induced ferroptosis in mouse AML12 cells assessed as reduction in ROS production at 200 to 1000 nM measured for 36 hrs; type: functional, cell-based; settings: dose 200-1000 nM
AML12 [25] = test: Protection against Brequinal-induced ferroptosis in mouse AML12 cells assessed as reduction in lipid peroxidation level at 200 nM measured for 48 hrs; type: functional, cell-based
AML12 [26] = test: Protection against FINO2-induced ferroptosis in mouse AML12 cells assessed as reduction in lipid peroxidation level at 200 nM measured for 48 hrs; type: functional, cell-based
AML12 [27] = test: Inhibition of Ptgs2 mRNA expression in mouse AML12 cells measured for 36 hrs by qRT-PCR analysis; type: functional, cell-based; settings: dose <= 10.0 µM

**Q.** How did the inhibition (Mus musculus [1]) turn out when `Cc1ncsc1-c1ccc(CNC(=O)[C@@H]2C[C@@H](O)CN2C(=O)[C@H](NC(=O)CCCC(=O)NCCOCCOCCOCCOc2ccc3c(c2)CCN(c2cccc(-c4nc5ccc(N6CCN(C)CC6)cc5[nH]4)c2)C3)C(C)(C)C)cc1` was run?
**A.** Active

**Q.** What about the Activity (AML12 [2]) of the same molecule?
**A.** Active

**Q.** What about the Activity (AML12 [3]) of the same molecule?
**A.** Active

**Q.** What about the Activity (AML12 [4]) of the same molecule?
**A.** Active

**Q.** And the inhibition (Mus musculus [5])?
**A.** Active

**Q.** And the Activity (AML12 [6])?
**A.** inactive

**Q.** And the Activity (AML12 [7])?
**A.** Active

**Q.** What about the Activity [8] of the same molecule?
**A.** Active

**Q.** What about the inhibition (Mus musculus [9]) of the same molecule?
**A.** Active

**Q.** And the inhibition (Mus musculus [10])?
**A.** Active

**Q.** What about the inhibition (Mus musculus [11]) of the same molecule?
**A.** Active

**Q.** What about the Activity (AML12 [12]) of the same molecule?
**A.** Active

**Q.** And the inhibition (Mus musculus [13])?
**A.** Active

**Q.** What about the Activity (AML12 [14]) of the same molecule?
**A.** Active

**Q.** And the inhibition (Mus musculus [15])?
**A.** Active

**Q.** And the Activity (AML12 [16])?
**A.** Active

**Q.** And the inhibition (Mus musculus [17])?
**A.** Active

**Q.** And the Activity (AML12 [18])?
**A.** Active

**Q.** And the inhibition (Mus musculus [19])?
**A.** Active

**Q.** And the Activity (AML12 [20])?
**A.** Active

**Q.** And the inhibition (Mus musculus [21])?
**A.** Active

**Q.** What about the Activity [22] of the same molecule?
**A.** Active

**Q.** And the DC50 [23]?
**A.** 202 nM

**Q.** What about the Activity (AML12 [24]) of the same molecule?
**A.** Active

**Q.** And the Activity (AML12 [25])?
**A.** Active

**Q.** And the Activity (AML12 [26])?
**A.** Active

**Q.** What about the inhibition (AML12 [27]) of the same molecule?
**A.** Dose-Dependent Effect
